Molecular target: T1, rat mGlu2 receptor (Rattus norvegicus, UniProt P31421)
T1 construct: expressed in transfected cells; vector pcD1mGR2
Assay: [3H]-LY354740 binding on mGlu2 transfected CHO cell membranes
Conditions: inhibition of 10 nM [3H]-LY354740 binding, mGlu2 transfected CHO cell membranes, room temperature, 1 hour; read-out: Ki mGlu2
Description: [^3H]-LY354740 Binding on mGlu2 Transfected CHO Cell Membranes
Transfection and Cell Culture
The cells were maintained in Dulbecco's Modified Eagle medium with reduced L-glutamine (2 mM final concentration) and 10% dialysed foetal calf serum from Gibco BRL (Basel, Switzerland).
Cells, cultured as above, were harvested and washed three times with cold PBS and frozen at −80° C. The pellet was resuspended in cold 20 mM HEPES-NaOH buffer containing 10 mM EDTA (pH 7.4), and homogenised with a polytron (Kinematica, AG, Littau, Switzerland) for 10 s at 10 000 rpm. After centrifugation for 30 min. at 4° C., the pellet was washed once with the same buffer, and once with cold 20 mM HEPES-NaOH buffer containing 0.1 mM EDTA, (pH 7.4). Protein content was measured using the Pierce method (Socochim, Lausanne, Switzerland) using bovine serum albumin as standard.
After thawing, the membranes were resuspended in cold 50 mM Tris-HCl buffer containing 2 mM MgCl2 and 2 mM CaCl2, (pH 7) (binding buffer). The final concentration of the membranes in the assays was 25 μg protein/ml. Inhibition experiments were performed with membranes incubated with 10 nM [^3H]-LY354740 at room temperature, for 1 hour, in presence of various concentrations of the compound to be tested. Following the incubations, membranes were filtered onto Whatmann GF/C glass fiber filters and washed 5 times with cold binding buffer. Non specific binding was measured in the presence of 10 μM DCG IV. After transfer of the filters into plastic vials containing 10 ml of Ultima-gold scintillation fluid (Packard, Zürich, Switzerland), the radioactivity was measured by liquid scintillation in a Tri-Carb 2500 TR counter (Packard, Zürich, Switzerland).
The inhibition curves were fitted with a four parameter logistic equation giving IC50 values, and Hill coefficients.

T1 sequence (P31421 19-872): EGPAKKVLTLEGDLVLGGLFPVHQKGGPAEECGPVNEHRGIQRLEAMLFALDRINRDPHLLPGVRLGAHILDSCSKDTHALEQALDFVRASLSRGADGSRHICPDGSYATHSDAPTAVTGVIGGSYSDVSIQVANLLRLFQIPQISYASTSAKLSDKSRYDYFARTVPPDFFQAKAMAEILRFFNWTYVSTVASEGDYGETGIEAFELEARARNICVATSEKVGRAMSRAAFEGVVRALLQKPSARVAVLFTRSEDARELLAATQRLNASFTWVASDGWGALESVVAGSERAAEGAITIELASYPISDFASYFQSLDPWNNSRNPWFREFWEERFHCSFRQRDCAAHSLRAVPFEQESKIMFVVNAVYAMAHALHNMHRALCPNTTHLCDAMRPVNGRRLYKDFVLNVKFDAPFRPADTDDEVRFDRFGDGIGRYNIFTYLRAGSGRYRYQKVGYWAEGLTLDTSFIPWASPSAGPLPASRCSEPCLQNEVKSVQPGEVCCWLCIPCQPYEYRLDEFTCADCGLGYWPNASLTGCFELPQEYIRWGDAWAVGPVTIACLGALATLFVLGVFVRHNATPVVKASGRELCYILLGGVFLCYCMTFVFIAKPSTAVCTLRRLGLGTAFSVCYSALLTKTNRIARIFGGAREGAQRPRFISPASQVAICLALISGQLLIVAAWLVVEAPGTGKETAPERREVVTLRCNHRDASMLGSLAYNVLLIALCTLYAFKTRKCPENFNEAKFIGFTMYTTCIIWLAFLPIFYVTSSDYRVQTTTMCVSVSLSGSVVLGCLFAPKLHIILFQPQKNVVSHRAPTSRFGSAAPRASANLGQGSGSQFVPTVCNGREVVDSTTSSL

| Compound | Ki |
| --- | --- |
| O=C1CC(c2cccc(-c3cccnc3)c2)=Nc2cc(Cl)c(Cl)cc2N1 [Example 1, 7,8-Dichloro-4-(3-pyridin-3-yl-phenyl)-1,3-dihydro-benzo[b][1,4]diazepin-2-one] | 1.35 nM |
| CN(C)c1cc2c(cc1C(F)(F)F)NC(=O)CC(c1cccc(-c3cccnc3)c1)=N2 [Example 3, 7-Dimethylamino-4-(3-pyridin-3-yl-phenyl)-8-trifluoromethyl-1,3-dihydro-benzo[b][1,4]diazepin-2-one] | 2.3 nM |
| CN(C)c1cc2c(cc1C(F)(F)F)NC(=O)CC(c1cccc(-c3ccncc3)c1)=N2 [Example 4, 7-Dimethylamino-4-(3-pyridin-4-yl-phenyl)-8-trifluoromethyl-1,3-dihydro-benzo[b][1,4]diazepin-2-one] | 6 nM |
| O=C1CC(c2cccc(-c3ccccn3)c2)=Nc2ccc(-n3cccc3)cc2N1 [Example 54, 4-(3-Pyridin-2-yl-phenyl)-8-pyrrol-1-yl-1,3-dihydro-benzo[b][1,4]diazepin-2-one] | 32.6 nM |

Tested on: not given
Assay: not given
Conditions: not given

| Compound | melting point |
| --- | --- |
| O=C1CC(c2cccc(-c3ccnc(N4CCOCC4)c3)c2)=Nc2cc(OCC(F)(F)F)c(C(F)(F)F)cc2N1 [Example 386, 4-[3-(2-Morpholin-4-yl-pyridin-4-yl)-phenyl]-7-(2,2,2-trifluoro-ethoxy)-8-trifluoromethyl-1,3-dihydro-benzo[b][1,4]diazepin-2-one] | 189 to 190 °C |
| O=C1CC(c2cccc(-c3ccnc(N4CCCC4)c3)c2)=Nc2ccc(C(F)(F)F)cc2N1 [Example 388, 4-[3-(2-Pyrrolidin-1-yl-pyridin-4-yl)-phenyl]-8-trifluoromethyl-1,3-dihydro-benzo[b][1,4]diazepin-2-one] | 224 °C |
| Cc1cc2c(cc1C(F)(F)F)NC(=O)CC(c1cccc(-c3ccnc(N4CCCC4)c3)c1)=N2 [Example 389, 7-Methyl-4-[3-(2-pyrrolidin-1-yl-pyridin-4-yl)-phenyl]-8-trifluoromethyl-1,3-dihydro-benzo[b][1,4]diazepin-2-one] | 190 °C |
| CCOc1cc2c(cc1C(F)(F)F)NC(=O)CC(c1cccc(-c3ccnc(N4CCCC4)c3)c1)=N2 [Example 390, 7-Ethoxy-4-[3-(2-pyrrolidin-1-yl-pyridin-4-yl)-phenyl]-8-trifluoromethyl-1,3-dihydro-benzo[b][1,4]diazepin-2-one] | 215 °C |
| CCOc1cc2c(cc1C(F)(F)F)NC(=O)CC(c1ccnc(-c3cccnc3)c1)=N2 [Example 393, 4-[2,3′]Bipyridinyl-4-yl-7-ethoxy-8-trifluoromethyl-1,3-dihydro-benzo[b][1,4]diazepin-2-one] | 249 °C |
| O=C1CC(c2ccnc(-c3cccnc3)c2)=Nc2cc(OCC(F)(F)F)c(C(F)(F)F)cc2N1 [Example 394, 4-[2,3′]Bipyridinyl-4-yl-7-(2,2,2-trifluoro-ethoxy)-8-trifluoromethyl-1,3-dihydro-benzo[b][1,4]diazepin-2-one] | 197 °C |
| CC(C)CN(C)Cc1cc(-c2cccc(C3=Nc4cc(N(C)CC(C)C)c(C(F)(F)F)cc4NC(=O)C3)c2)ccn1 [Example 395, 7-(Isobutyl-methyl-amino)-4-(3-{2-[(isobutyl-methyl-amino)-methyl]-pyridin-4-yl}-phenyl)-8-trifluoromethyl-1,3-dihydro-benzo[b][1,4]diazepin-2-one] | 190 °C |
| Cc1cc2c(cc1Cl)NC(=O)CC(c1cccc(-c3ccnc(CN(C)CC(C)C)c3)c1)=N2 [Example 396, 8-Chloro-4-(3-{2-[(isobutyl-methyl-amino)-methyl]-pyridin-4-yl}-phenyl)-7-methyl-1,3-dihydro-benzo[b][1,4]diazepin-2-one] | 151 °C |
| CC(C)CN(C)Cc1cc(-c2cccc(C3=Nc4cc(OCC(F)(F)F)c(C(F)(F)F)cc4NC(=O)C3)c2)ccn1 [Example 397, 4-(3-{2-[(Isobutyl-methyl-amino)-methyl]-pyridin-4-yl}-phenyl)-7-(2,2,2-trifluoro-ethoxy)-8-trifluoromethyl-1,3-dihydro-benzo[b][1,4]diazepin-2-one] | 166 °C |
| COCc1cc(-c2cccc(C3=Nc4cc(N(C)CC(C)C)c(C(F)(F)F)cc4NC(=O)C3)c2)ccn1 [Example 398, 7-(Isobutyl-methyl-amino)-4-[3-(2-methoxymethyl-pyridin-4-yl)-phenyl]-8-trifluoromethyl-1,3-dihydro-benzo[b][1,4]diazepin-2-one] | 141 °C |
| COCc1cc(-c2cccc(C3=Nc4cc(C)c(Cl)cc4NC(=O)C3)c2)ccn1 [Example 399, 8-Chloro-4-[3-(2-methoxymethyl-pyridin-4-yl)-phenyl]-7-methyl-1,3-dihydro-benzo[b][1,4]diazepin-2-one] | 216 °C |
| COCc1cc(-c2cccc(C3=Nc4cc(OCC(F)(F)F)c(C(F)(F)F)cc4NC(=O)C3)c2)ccn1 [Example 400, 4-[3-(2-Methoxymethyl-pyridin-4-yl)-phenyl]-7-(2,2,2-trifluoro-ethoxy)-8-trifluoromethyl-1,3-dihydro-benzo[b][1,4]diazepin-2-one] | 225 °C |
| Cc1cc(-c2cccc(C3=Nc4cc(C)c(Cl)cc4NC(=O)C3)c2)cc(CO)n1 [Example 401, 8-Chloro-4-[3-(2-hydroxymethyl-6-methyl-pyridin-4-yl)-phenyl]-7-methyl-1,3-dihydro-benzo[b][1,4]diazepin-2-one] | 202 °C |
| Cc1cc(-c2cccc(C3=Nc4cc(C)c(C(F)(F)F)cc4NC(=O)C3)c2)cc(CO)n1 [Example 402, 4-[3-(2-Hydroxymethyl-6-methyl-pyridin-4-yl)-phenyl]-7-methyl-8-trifluoromethyl-1,3-dihydro-benzo[b][1,4]diazepin-2-one] | 200 °C |
| Cc1cc(-c2cccc(C3=Nc4cc(Cl)c(C(F)(F)F)cc4NC(=O)C3)c2)cc(CO)n1 [Example 403, 7-Chloro-4-[3-(2-hydroxymethyl-6-methyl-pyridin-4-yl)-phenyl]-8-trifluoromethyl-1,3-dihydro-benzo[b][1,4]diazepin-2-one] | 163 °C |
| Cc1cc(-c2cccc(C3=Nc4cc(Cl)c(Cl)cc4NC(=O)C3)c2)cc(CO)n1 [Example 404, 7,8-Dichloro-4-[3-(2-hydroxymethyl-6-methyl-pyridin-4-yl)-phenyl]-1,3-dihydro-benzo[b][1,4]diazepin-2-one] | 234 °C |
| Cc1cc(-c2cccc(C3=Nc4cc(OCC(F)(F)F)c(C(F)(F)F)cc4NC(=O)C3)c2)cc(CO)n1 [Example 405, 4-[3-(2-Hydroxymethyl-6-methyl-pyridin-4-yl)-phenyl]-7-(2,2,2-trifluoro-ethoxy)-8-trifluoromethyl-1,3-dihydro-benzo[b][1,4]diazepin-2-one] | 227 °C |
| CCOc1cc2c(cc1C(F)(F)F)NC(=O)CC(c1cccc(-c3cc(C)nc(CO)c3)c1)=N2 [Example 406, 7-Ethoxy-4-[3-(2-hydroxymethyl-6-methyl-pyridin-4-yl)-phenyl]-8-trifluoromethyl-1,3-dihydro-benzo[b][1,4]diazepin-2-one] | 225 °C |
| Cc1cc(-c2cccc(C3=Nc4ccc(C(F)(F)F)cc4NC(=O)C3)c2)cc(CO)n1 [Example 407, 4-[3-(2-Hydroxymethyl-6-methyl-pyridin-4-yl)-phenyl]-8-trifluoromethyl-1,3-dihydro-benzo[b][1,4]diazepin-2-one] | 228 °C |
| Cc1cc(-c2cccc(C3=Nc4cc(N(C)CC(C)C)c(C(F)(F)F)cc4NC(=O)C3)c2)cc(C)n1 [Example 408, 4-[3-(2,6-Dimethyl-pyridin-4-yl)-phenyl]-7-(isobutyl-methyl-amino)-8-trifluoromethyl-1,3-dihydro-benzo[b][1,4]diazepin-2-one] | 215 °C |
| Cc1cc(-c2cccc(C3=Nc4cc(N(C)C)c(C(F)(F)F)cc4NC(=O)C3)c2)cc(C)n1 [Example 409, 7-Dimethylamino-4-[3-(2,6-dimethyl-pyridin-4-yl)-phenyl]-8-trifluoromethyl-1,3-dihydro-benzo[b][1,4]diazepin-2-one] | 256 °C |
| Cc1cc(-c2cccc(C3=Nc4cc(N5CCCC5)c(C(F)(F)F)cc4NC(=O)C3)c2)cc(C)n1 [Example 411, 4-[3-(2,6-Dimethyl-pyridin-4-yl)-phenyl]-7-pyrrolidin-1-yl-8-trifluoromethyl-1,3-dihydro-benzo[b][1,4]diazepin-2-one] | 233 °C |
| Cc1cc(-c2cccc(C3=Nc4cc(N(C)C(C)C)c(C(F)(F)F)cc4NC(=O)C3)c2)cc(C)n1 [Example 412, 4-[3-(2,6-Dimethyl-pyridin-4-yl)-phenyl]-7-(isopropyl-methyl-amino)-8-trifluoromethyl-1,3-dihydro-benzo[b][1,4]diazepin-2-one] | 232 °C |
| CCCN(C)c1cc2c(cc1C(F)(F)F)NC(=O)CC(c1cccc(-c3cc(C)nc(C)c3)c1)=N2 [Example 413, 4-[3-(2,6-Dimethyl-pyridin-4-yl)-phenyl]-7-(methyl-propyl-amino)-8-trifluoromethyl-1,3-dihydro-benzo[b][1,4]diazepin-2-one] | 233 °C |
| Cc1cc(-c2cccc(C3=Nc4cc(C(F)(F)F)c(C(F)(F)F)cc4NC(=O)C3)c2)ccn1 [Example 414, 4-[3-(2-Methyl-pyridin-4-yl)-phenyl]-7,8-bis-trifluoromethyl-1,3-dihydro-benzo[b][1,4]diazepin-2-one] | 209 °C |
| Cc1cc(-c2cccc(C3=Nc4cc(C(F)(F)F)c(C(F)(F)F)cc4NC(=O)C3)c2)cc(C)n1 [Example 415, 4-[3-(2,6-Dimethyl-pyridin-4-yl)-phenyl]-7,8-bis-trifluoromethyl-1,3-dihydro-benzo[b][1,4]diazepin-2-one] | 220 °C |
| O=C1CC(c2cccc(-c3cccnc3)c2)=Nc2cc(C(F)(F)F)c(C(F)(F)F)cc2N1 [Example 416, 4-(3-Pyridin-3-yl-phenyl)-7,8-bis-trifluoromethyl-1,3-dihydro-benzo[b][1,4]diazepin-2-one] | 210 °C |
| O=C1CC(c2cccc(-c3ccnc(CO)c3)c2)=Nc2cc(C(F)(F)F)c(C(F)(F)F)cc2N1 [Example 417, 4-[3-(2-Hydroxymethyl-pyridin-4-yl)-phenyl]-7,8-bis-trifluoromethyl-1,3-dihydro-benzo[b][1,4]diazepin-2-one] | 209 °C |
